Test results: patent US11167012B2, “Peptide inhibition of CCR3-mediated diseases or conditions” (The Board of Trustees of the University of Illinois, priority 2015, dated 2021)
“Also recorded” adds a separate entry of the source. Where a SMILES comes first, the peptide text is derived from it. The star is where a group is joined. X1 = NC(=O)CCOCCOCCOCCOCCOCCOCCOCCOCCOCCOCCOCCOCCOCCOCCOCCOCCOCCOCCOCCOCCOCCOCCOCCOCCOCCOCCOCCOCCN*

Experiments:
ERK1/2 phosphorylation = assay: Signal transduction assay, Western blotting of phospho-ERK1/2 in AML14.3D10-CCR3 cells; format: cell-based, human
Procedure: Phospho-ERK was detected using a specific antibody. The membrane was stripped and reprobed for total ERK1/2 as loading control. Immunoblots were quantified by densitometry using ImageJ. PD: PD184161, MEK inhibitor.
AML14.3D10-CCR3 cells were serum starved for 16 hours. Cells were pretreated with vehicle control, R3-2-1 or PD184161 for 30 minutes at 37° C., and subsequently stimulated with 8 nM CCL5 or CCL11 for 2 minutes. Stimulation was stopped by adding ice cold PBS. Cells were centrifuged and lysed in RIPA buffer containing protease and phosphatase inhibitors. Cell lysates were resolved on a 12% SDS-PAGE gel (10 μg/lane), transferred to PVDF membrane and blocked in 5% milk. Phospho-ERK1/2 was detected using rabbit monoclonal antibody (clone D13.14.4E, Cell Signaling Technology, Danvers, Mass.) and secondary goat anti-rabbit IgG-HRP (Santa Cruz Biotechnology, Dallas, Tex.). As a loading control, the membrane was subsequently stripped and re-probed with an antibody against total ERK1/2 (clone 127F5, Cell Signaling Technology).
Concurrent to ligand binding and activation, CCR3 undergoes ligand-induced desensitization and internalization (Zimmermann, et al. (1999) J. Biol. Chem. 274:12611-12618). As part of the desensitization process, CCR3 is degraded. This is thought to occur via β-arrestin recruitment to phosphorylated CCR3 and subsequent sequestration of the receptor into endosomal compartments, eventually leading to degradation. β-arrestin signaling is central in this process and is characterized by a late activation of signaling pathways such as MAPK/ERK1/2, in contrast to acute activation by G proteins. […] Therefore, the R3-2-1 peptide is a biased antagonist in that it inhibits the […] of CCL11 ligand-induced β-arrestin signaling, whereas the small molecule inhibitors are unbiased antagonists.

CCR3 [1] = biological target: T1, CCR3 (Homo sapiens, UniProt P51677); assay: Chemotaxis assay (Transwell), blood eosinophils; format: cell-based; parameters: host or cells: AML14.3D10-CCR3 (eosinophilic myelocytic cell line, kept under G418); details: for IC90: blood eosinophils, 4 hours
T1 sequence (P51677 1-355): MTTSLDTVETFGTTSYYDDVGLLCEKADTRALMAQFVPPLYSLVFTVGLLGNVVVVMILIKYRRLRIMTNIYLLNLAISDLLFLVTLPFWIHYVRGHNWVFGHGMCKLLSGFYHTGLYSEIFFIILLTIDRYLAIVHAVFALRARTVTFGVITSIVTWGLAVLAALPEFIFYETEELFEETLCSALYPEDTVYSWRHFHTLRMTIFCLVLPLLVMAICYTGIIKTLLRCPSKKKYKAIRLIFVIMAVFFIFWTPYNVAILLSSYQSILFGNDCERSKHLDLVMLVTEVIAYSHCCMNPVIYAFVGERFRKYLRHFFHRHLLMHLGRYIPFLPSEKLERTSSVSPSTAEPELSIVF
Description: Blood eosinophils were purified from anti-coagulated blood drawn from mild allergic asthmatic subjects. Peripheral blood was subjected to density gradient centrifugation over FICOLL-PAQUE® Plus (GE Healthcare, Pittsburgh, Pa.) media to obtain a pellet containing erythrocytes and granulocytes. After erythrocyte lysis via hypotonic shock, eosinophils were purified by negative selection using a cocktail of antibody-conjugated magnetic beads against non-eosinophils (Miltenyi Biotec, Auburn, Calif.). The eosinophils were resuspended in X-VIVO 10 without phenol red. The purity and viability of the eosinophils obtained was routinely >97% as assessed by Hema III and trypan blue staining, respectively.
Cell migration was determined using a 96-well TRANSWELL® system (Corning, Tewksbury, Mass.). Briefly, 200 μl chemoattractant or control medium was added to the lower chamber while 100 μl cells were added to the upper chamber. The two chambers were separated by a polycarbonate filter with 5 μm pores. For AML14.3D10-CCR3 cells, 2×10^5 cells/well were resuspended in RPMI-1640+0.1% BSA and allowed to migrate for 4 hours at 37° C. […] Migrated cells were counted using a Beckman QUANTA SC flow cytometer. All experiments were performed in duplicate. Checkerboard analysis was done to distinguish chemotaxis from chemokinesis.
Primary eosinophils and the stable CCR3+eosinophilic myelocytic cell line, AML14.3D10-CCR3 (Daugherty, et al. (1996) J. Exp. Med. 183:2349-2354) undergo CCR3-mediated chemotaxis induced by multiple chemokines including eotaxin/CCL11, RANTES/CCL5, MCP-4/CCL13, and MEC/CCL28 (Daugherty, et al. (1996) J. Exp. Med. 183:2349-2354; Pan, et al. (2000) J. Immunol. 165:2943-2949). […] In addition, R3-2-1 inhibits chemotaxis of both AML14.3D10-CCR3 and blood eosinophils induced by CCL11/Eotaxin-1, CCL24/Eotaxin-2, and CCL26/Eotaxin-3 in a dose-dependent fashion (Table 3).

CCR3 [2] = biological target: T1, CCR3; assay: CCR3 degradation in cycloheximide-treated AML14.3D10-CCR3 cells, immunoblot; format: cell-based; parameters: host or cells: AML14.3D10-CCR3 (eosinophilic myelocytic cell line, kept under G418); details: 10 μM, 8 nM eotaxin or RANTES for 3 hours
Procedure: AML14.3D10-CCR3 cells were resuspended in RPMI-1640+0.1% BSA. Aliquots of 1×10^6 cells were pretreated with 10 μM cycloheximide for 1 hour at 37° C. Some cells were concurrently pretreated with 10 μM R3-2-1, 10 μM MG132, or both for 30 minutes. Pretreated cells were stimulated with 8 nM eotaxin or RANTES for 3 hours to induce receptor degradation. An aliquot of untreated cells were reserved at the start of the experiment to establish baseline CCR3 expression. All cells were then lysed in RIPA buffer and immunoblotted for CCR3 with a polyclonal rabbit anti-CCR3 antibody (Abcam) followed by goat anti-rabbit IgG-HRP secondary antibody (Santa Cruz).

[3] = Dynamic light scattering of peptide solution; format: physicochemical; details: aqueous environment; 0.4 mg/ml in PBS
Description: As indicated herein, the CCR3 peptide analog self-assembles in aqueous medium into highly homogenous nanoparticles. Dynamic light scattering analyses indicate that the radius of the instant nanoparticles is in the range of 1 to 100 nm, more specifically about 8 nm (FIG. 1). Based upon the size and composition, the nanoparticles facilitate translocation of the peptide through the plasma membrane and protect the peptide from degradation in the blood/serum or other body fluids. Accordingly, this invention also provides a nanoparticle composition containing the CC3 peptide analog as well as methods of using the nanoparticle composition to antagonize CCR3 and in the treatment of inflammatory diseases such as asthma, and eosinophilic esophagitis.

Compound: CC[C@H](C)[C@H](NC(=O)[C@H](Cc1c[nH]c2ccccc12)NC(=O)[C@H](Cc1ccccc1)NC(=O)[C@@H]1CCCN1C(=O)[C@H](CC(C)C)NC(=O)[C@@H](NC(=O)[C@@H](NC(=O)[C@H](CC(C)C)NC(=O)[C@H](Cc1ccccc1)NC(=O)[C@H](CC(C)C)NC(=O)[C@@H](N)CC(C)C)C(C)C)[C@@H](C)O)C(=O)N[C@@H](Cc1c[nH]cn1)C(=O)N[C@@H](Cc1ccc(O)cc1)C(=O)N[C@H](C(=O)N[C@@H](CCCNC(=N)N)C(=O)NCC(=O)N[C@@H](Cc1c[nH]cn1)C(=O)N[C@@H](CC(N)=O)C(=O)N[C@@H](Cc1c[nH]c2ccccc12)C(=O)N[C@H](C(=O)N[C@@H](Cc1ccccc1)C(=O)NCC(=O)N[C@@H](Cc1c[nH]cn1)C(=O)N[C@@H](CC(=O)O)C(=O)N[C@@H](CC(=O)O)C(=O)N[C@@H](CC(=O)O)C(=O)NCCOCCOCCOCCOCCOCCOCCOCCOCCOCCOCCOCCOCCOCCOCCOCCOCCOCCOCCOCCOCCOCCOCCOCCOCCOCCOCCOCCOCCC(N)=O)C(C)C)C(C)C [Peptide R3-2-1] (H-LLFLVTLPFWIHYVRGHNWVFGHDDD-X1; N-terminus assumed)
- acute (2-5 minutes) and late (30 minutes) phase phosphorylation of ERK1/2 (ERK1/2 phosphorylation; 10 μM, CCL11-induced): inhibits only acute phosphorylation of ERK1/2
- inhibition of ERK1/2 phosphorylation induced by RANTES and eotaxin (ERK1/2 phosphorylation; 2 and 10 μM, 8 nM CCL5 or CCL11 for 2 minutes): inhibits activation of the MAPK pathway; also recorded: attenuated
- inhibition of chemotaxis of blood eosinophils (CCR3 [1]; 2, 10 or 50 μM): similarly able to inhibit chemotaxis of blood eosinophils
- IC50 for inhibition of chemotaxis, in words (CCR3 [1]; CCL11-, CCL24-, CCL26-induced chemotaxis, summary of Table 3): low nanomolar range
- IC90 (CCR3 [1]; chemotaxis to CCL11/Eotaxin-1 (12 nM)): 760 ± 100 nM
- IC90 (CCR3 [1]; chemotaxis to CCL24/Eotaxin-2 (20 nM)): 730 ± 100 nM
- IC90 (CCR3 [1]; chemotaxis to CCL26/Eotaxin-3 (100 nM)): 1100 ± 150 nM
- CCR3 degradation induced by eotaxin and RANTES (CCR3 [2]): enhanced CCR3 degradation induced by eotaxin and RANTES
- hydrodynamic radius of self-assembled nanospheres [3]: approximately 8 nm
